Experimental data: paper PMC11944515, “Host-Mediated Antimicrobial Effects and NLRP3 Inflammasome Modulation by Caulerpin and Its Derivatives in Macrophage Models of Mycobacterial Infections” (Microorganisms, 2025)
Read-outs that look alike come from different tables or passages of the source.

Columns and labels:
RAW 264.7 cells = experiment: Direct effects on RAW 264.7 cell viability (MTT); assay type: cell-based, murine
Procedure: The direct effects of CP and its analogues on RAW 264.7 viability were evaluated using the MTT method. RAW 264.7 cells were seeded at 1 × 10^4 cells/well (for 24 h incubation) and 5 × 10^3 cells/well (for 48 h incubation) and incubated overnight to allow adhesion. The culture medium was carefully aspirated and replaced with 100 μL DMEM plus 100 μL of test compound solutions, yielding final concentrations ranging from 3.25 to 30 µM (DMSO 1%, v/v). After 24 or 48 h of exposure to test compounds, cells were incubated with MTT (0.5 mg/mL) for 3 h. The resulting formazan crystals were dried, dissolved in DMSO, and absorbance was measured at 570 nm using a microplate reader (EL800, BioTek, Winooski, VT, USA). The precipitated purple formazan crystals were directly proportional to the number of metabolically active viable cells. The cell viability was then calculated as: Cell viability (%) = (Sample absorbance/Control absorbance) × 100. Data were expressed as mean of cell viability ± standard error of the mean from three to four independent experiments performed in triplicate.

IL-1β = IL-1β production in M. smegmatis-infected RAW 264.7 cells (ELISA); assay type: cell-based, murine; conditions: 15 μM, 24 h, M. smegmatis MOI 1:1, vs infected control
Procedure: (§1) IL-1β, IL-10, and TNF-α levels in the culture supernatant were determined by sandwich enzyme-linked immunosorbent assay as per the manufacturer’s instructions. Optical density was read at 450 nm using a microplate spectrophotometer (microplate reader EL800, BioTek, Winooski, VT, USA).

Artemia salina = Artemia salina toxicity test; conditions: 24 h; for effect on A. salina nauplii survival: 30 to 120 µM; for IC50: Artemia salina, estimated
Procedure: Artemia salina (brine shrimp) survival was determined after incubation with CP and its analogues following the method described by Magalhães et al.. A. salina cysts were purchased from a local aquarium store and hatched (0.5 g cysts/L) in modified artificial seawater (35 g/L sea salt) supplemented with dried yeast (6 mg/L). Aeration was provided using an aquarium air pump connected to a line extending to the bottom of the hatching vessel. After 2 days incubation (in a 23–25 °C room), nauplii were collected using a Pasteur pipette after attracting the organisms to one side of the vessel with a light source. Test compounds were serially diluted 2-fold (ranging from 30 to 120 µM) in 96-well microplates containing 100 µL of 0.9% NaCl solution with dried yeast (6 mg/L). All experiments were performed in quadruplicate with a final DMSO concentration of 2.5%. Vehicle control wells (with 2.5% DMSO) were included in the experiment. A suspension containing 8–12 nauplii in 100 µL was added to each well, and the plates were incubated at 23–25 °C for 24 h. The number of live and dead (non-motile) nauplii in each well was then counted under a microscope. Nauplii were considered dead if they remained immobile for 10 s under light exposure. The survival percentage for each test group was calculated relative to the control group (2.5% DMSO), which was set as 100%.

Vero E6 cells [1] = experiment: Cytotoxicity on Vero E6 cells (MTT); assay type: cell-based, monkey; conditions: 24 h; for effect on Vero E6 cell viability: 30 to 120 µM, MTT; for IC50: Primates, Vero C1008, estimated
Procedure: Cytotoxicity was evaluated using the MTT method. For this purpose, two cell lines were tested: Vero E6 and HepG2. Both cell lines were seeded at 1 × 10^4 cells/well in 96-well microtiter plates and incubated overnight to adhere. The culture medium was carefully aspirated and replaced with 100 µL DMEM plus 100 µL of test compound solutions (CP, CA, and DE), yielding final concentrations ranging from 30 to 120 µM (1% DMSO, v/v). Cells were incubated with test compounds for 24 h at 37 °C in a 5% CO2 atmosphere. MTT solution (0.5 mg/mL) was subsequently added, and cells were incubated for an additional 3 h. The resulting formazan crystals were dried at room temperature for 24 h and dissolved in DMSO. Absorbance was measured at 570 nm (microplate reader EL800, BioTek, Winooski, VT, USA). Cell viability was calculated as previously described in the RAW 264.7 cell viability assay section.

NLRP3 inflammasome = experiment: NLRP3 evaluation by flow cytometry in M. smegmatis-infected RAW 264.7 cells; assay type: cell-based, murine; conditions: 15 μM, 24 h
Procedure: Cells were placed in a 96-well plate (U bottom) 24 h after treatment in culture. Then, cells were fixed by Cytofix (BD Cytofix™, Franklin Lakes, NJ, USA) and permeabilized by Perm Buffer (BD Phosflow™, San Diego, CA, USA) for 30 min each. Cells were subsequently labeled with an unconjugated anti-NLRP3 antibody, according to the manufacturer’s instructions (BD Biosciences, San Diego, CA, USA). Finally, anti-rat IgG2a (PE) was added for NLRP3 analysis and cells were suspended in PBS and evaluated in a BD Accuri C6 Plus flow cytometer.
First, macrophages were visualized using size (FSC) and granularity (SSC) parameters, and a gate was performed in the cell population. The macrophages were then analyzed by measuring the median fluorescence intensity (MFI) corresponding to antibody labeling. MFI data were normalized to the control group, which was set to 100%.

TNF-α = TNF-α production in M. smegmatis-infected RAW 264.7 cells (ELISA); assay type: cell-based, murine; conditions: 15 μM, 24 h, M. smegmatis MOI 1:1, vs infected control
Procedure: as §1

Vero E6 cells [2] = conditions: cited from earlier work
HepG2 cells = test system: HepG2 cells; parameters: method as in PMID 32579063; conditions: 15.80 to 500 µg/mL over 24 h; cited from earlier work
[3] = test system: IFN-γ, IL-6, and TNF-α levels; parameters: method as in PMID 30205459; conditions: doses of 40 mg/kg, murine model of peritonitis and ulcerative colitis; cited from earlier work
[4] = test system: IL-8, IL-6, and TNF-α cytokines; parameters: method as in PMID 34884957; conditions: pretreatment, compared with untreated control; cited from earlier work

Structure (SMILES): CCOC(=O)/C1=C/c2c([nH]c3ccccc23)/C(C(=O)OCC)=C\c2c1[nH]c1ccccc21 [DE, (6E,13E)-diethyl 5,12-dihydrocycloocta[1,2-b:5,6-b′]diindole-6,13-dicarboxylate]
- effect on RAW 264.7 cell viability (RAW 264.7 cells; 24 h incubation, 3.25 to 30 µM): affected cell viability at the concentration of 30 μM
- effect on RAW 264.7 cell viability (RAW 264.7 cells; 48 h incubation): did not affect cell viability at any concentration evaluated
- reduction in IL-1β production (IL-1β): 59.82%
- effect on A. salina nauplii survival (Artemia salina): did not affect nauplii survival rates
- IC50 (Artemia salina): > 120 µM
- effect on Vero E6 cell viability (Vero E6 cells [1]): did not significantly reduce cell viability
- IC50 (Vero E6 cells [1]): > 120 µM
- reduction of NLRP3 expression (MFI) (NLRP3 inflammasome): 39.81%
- reduction in TNF-α production (TNF-α): 56.94%

Structure (SMILES): COC(=O)/C1=C/c2c([nH]c3ccccc23)/C(C(=O)OC)=C\c2c1[nH]c1ccccc21 [CP, Caulerpin]
- effect on Vero E6 viability (Vero E6 cells [2]; 589.3 µg/mL): maintained their viability
- effect on Vero E6 viability (Vero E6 cells [2]; 50 to 1000 µM for 72 h): no effect on Vero E6 viability
- effect on RAW 264.7 cell viability (RAW 264.7 cells; 24 h incubation, 3.25 to 30 µM): affected cell viability at the concentration of 30 μM
- effect on RAW 264.7 cell viability (RAW 264.7 cells; 48 h incubation): affected cell viability at the 2 highest concentrations tested, 15 and 30 μM
- reduction in IL-1β production (IL-1β): 69.35%
- effect on A. salina nauplii survival (Artemia salina): did not affect nauplii survival rates
- IC50 (Artemia salina): > 120 µM
- effect on Vero E6 cell viability (Vero E6 cells [1]): did not significantly reduce cell viability
- IC50 (Vero E6 cells [1]): > 120 µM
- anticancer activity in HepG2 cells (HepG2 cells): exhibited anticancer activity in HepG2 cells
- reduction of NLRP3 expression (MFI) (NLRP3 inflammasome): 29.12%
- effect on IFN-γ, IL-6, and TNF-α levels [3]: reduced IFN-γ, IL-6, and TNF-α levels
- reduction in TNF-α production (TNF-α): 34.07%
- effect on IL-8, IL-6, and TNF-α expression [4]: reduced expression of IL-8, IL-6, and TNF-α cytokines

Structure (SMILES): O=C(O)C1=Cc2c([nH]c3ccccc23)C(C(=O)O)=Cc2c1[nH]c1ccccc21 [CA, caulerpinic acid]
- effect on RAW 264.7 cell viability (RAW 264.7 cells; 24 h incubation, 3.25 to 30 µM): did not affect viability at any of the concentrations tested
- effect on RAW 264.7 cell viability (RAW 264.7 cells; 48 h incubation): did not affect cell viability at any concentration evaluated
- effect on A. salina nauplii survival (Artemia salina): did not affect nauplii survival rates
- IC50 (Artemia salina): > 120 µM
- effect on Vero E6 cell viability (Vero E6 cells [1]): did not significantly reduce cell viability
- IC50 (Vero E6 cells [1]): > 120 µM
